{"source": "paper PMC6585716", "about": "“Protein catalyzed capture agents with tailored performance for in vitro and in vivo applications” (Biopolymers, 2017)", "key": {"[1]": {"details": "mouse, in vivo, ip, 5 mg/kg"}, "in vivo": {"experiment": "in vivo", "details": "male, CD-1, mouse"}, "[2]": {"details": "pH 7.4"}, "[3]": {"experiment": "In vivo pharmacokinetics in mice (IV or IP, parallel sampling)", "details": "for AUC% Ext: male CD-1 mice"}, "[4]": {"details": "male, CD-1, mouse, plasma, ip, 5 mg/kg"}, "[5]": {"details": "male, CD-1, mouse, plasma, iv, 1 mg/kg"}}, "note": "Where two headings read alike, the source gives them in different places. Starred links: 1 amine or outer side, 2 acyl side, 3 side chain; linkers in the order of their positions; H or OH if unused. Positions of bridges follow the written chain, without caps; N, C: chain ends. Non-standard residues stand in square brackets, D forms with d. Residues, ends and D or L forms follow the SMILES beside them. Triazole bridges read from a SMILES are 1,4-linked. Chains are numbered I, II in the order given. *: point of attachment. X1 = O=C(CCCC[C@@H]1SC[C@@H]2NC(=O)N[C@@H]21)NCCCOCCOCCOCCCN*; Lys(N3) = [N-]=[N+]=NCCCC[C@H](N)C(=O)O; Suc = O=C(CCC(=O)[*:2])[*:1]; dPra = C#CC[C@@H](N)C(=O)O"}
{"smiles": "CC[C@H](C)[C@@H]1NC(=O)[C@H](CC(=O)O)NC(=O)[C@@H](NC(=O)[C@H](CC(N)=O)NC(=O)[C@@H]2CCCN2C(=O)[C@H](CCC(=O)O)NC(=O)[C@@H](NC(=O)CCC(=O)NCCCOCCOCCOCCCNC(=O)CCCC[C@@H]2SC[C@@H]3NC(=O)N[C@@H]32)C(C)C)CSSC[C@@H](C(=O)N[C@@H](Cc2ccccc2)C(=O)N[C@@H](CCC(=O)O)C(=O)N[C@@H](CCCNC(=N)N)C(=O)N[C@@H](CC(C)C)C(=O)N[C@@H](CCCCn2cc(C[C@@H](N)C(=O)N[C@H](CC(C)C)C(=O)N[C@H](Cc3ccccc3)C(=O)N[C@H](CCCNC(=N)N)C(=O)N[C@H](CCC(=O)O)C(=O)N[C@H](Cc3c[nH]c4ccccc34)C(N)=O)nn2)C(=O)O)NC(=O)[C@H](CCC(=O)O)NC(=O)[C@H](Cc2c[nH]c3ccccc23)NC(=O)[C@H](CCC(=O)O)NC(=O)[C@H](Cc2c[nH]c3ccccc23)NC(=O)[C@H](CCSC)NC(=O)[C@H](C(C)C)NC(=O)[C@H](Cc2c[nH]cn2)NC1=O", "note": "[Bi‐LV] (I: {X1-Suc}-VEPNCDIHVMWEWECFERL[Lys(N3)]-OH / II: H-[dPra][dL][dF][dR][dE][dW]-NH2; disulfide I:5-I:15; triazole I:20-II:1)", "values": [{"measurement": "bioavailability", "setting": "[1]", "value": 41, "unit": "%"}, {"measurement": "AUC(0-inf)", "setting": "in vivo; ip, 5 mg/kg", "value": 2420, "unit": "ng·h/mL"}, {"measurement": "AUC(0-t)", "setting": "in vivo; ip, 5 mg/kg", "value": 2170, "unit": "ng·h/mL"}, {"measurement": "Cmax", "setting": "in vivo; ip, 5 mg/kg", "value": 3210, "unit": "ng/mL"}, {"measurement": "Tmax", "setting": "in vivo; ip, 5 mg/kg", "value": 10.2, "unit": "min"}, {"measurement": "half-life", "setting": "in vivo; ip, 5 mg/kg", "value": 154, "unit": "min"}, {"measurement": "AUC(0-inf)", "setting": "in vivo; iv, 1 mg/kg", "value": 1110, "unit": "ng·h/mL"}, {"measurement": "AUC(0-t)", "setting": "in vivo; iv, 1 mg/kg", "value": 1050, "unit": "ng·h/mL"}, {"measurement": "Vd", "setting": "in vivo; iv, 1 mg/kg", "value": 0.16, "unit": "L/kg"}, {"measurement": "clearance", "setting": "in vivo; iv, 1 mg/kg", "value": 15, "unit": "mL/min/kg"}, {"measurement": "half-life", "setting": "in vivo; iv, 1 mg/kg", "value": 7, "unit": "min"}, {"measurement": "resistance to metabolic degradation by mouse liver microsomes (in words)", "setting": "[2]", "value": "high resistance to metabolic degradation"}]}
{"smiles": "CC[C@@H](C)[C@@H](NC(=O)[C@@H](CCC(=O)O)NC(=O)[C@@H](CCC(=O)O)NC(=O)[C@H](N)Cc1cn(CCCC[C@H](NC(=O)[C@@H](Cc2c[nH]c3ccccc23)NC(=O)[C@@H](CCC(=O)O)NC(=O)[C@@H](CCCNC(=N)N)NC(=O)[C@@H](Cc2ccccc2)NC(=O)[C@@H](CC(C)C)NC(=O)[C@H](N)Cc2cn(CCCC[C@H](NC(=O)[C@H](CC(C)C)NC(=O)[C@H](CCCNC(=N)N)NC(=O)[C@H](CCC(=O)O)NC(=O)[C@H](Cc3ccccc3)NC(=O)[C@@H]3CSSC[C@H](NC(=O)[C@H](CC(N)=O)NC(=O)[C@@H]4CCCN4C(=O)[C@H](CCC(=O)O)NC(=O)[C@@H](NC(=O)CCC(=O)NCCCOCCOCCOCCCNC(=O)CCCC[C@@H]4SC[C@@H]5NC(=O)N[C@@H]54)C(C)C)C(=O)N[C@@H](CC(=O)O)C(=O)N[C@@H]([C@@H](C)CC)C(=O)N[C@@H](Cc4c[nH]cn4)C(=O)N[C@@H](C(C)C)C(=O)N[C@@H](CCSC)C(=O)N[C@@H](Cc4c[nH]c5ccccc45)C(=O)N[C@@H](CCC(=O)O)C(=O)N[C@@H](Cc4c[nH]c5ccccc45)C(=O)N[C@@H](CCC(=O)O)C(=O)N3)C(=O)O)nn2)C(=O)O)nn1)C(=O)N[C@H](CCCNC(=N)N)C(=O)N[C@H](CC(=O)O)C(N)=O", "note": "[Tri‐LV] (I: {X1-Suc}-VEPNCDIHVMWEWECFERL[Lys(N3)]-OH / II: H-[dPra][dL][dF][dR][dE][dW][Lys(N3)]-OH / III: H-[dPra][dE][dE][dI][dR][dD]-NH2; disulfide I:5-I:15; triazole I:20-II:1, II:7-III:1)", "values": [{"measurement": "AUC% Ext", "setting": "[3]; IP, 5 mg/kg single dose, plasma", "value": 2.04, "unit": "%"}, {"measurement": "AUC% Ext", "setting": "[3]; IV, 1 mg/kg single dose, plasma", "value": 6.49, "unit": "%"}, {"measurement": "AUC(0-inf)", "setting": "[3]; [4]", "value": 32200, "unit": "ng·h/mL"}, {"measurement": "AUC(0-t)", "setting": "[3]; [4]", "value": 31500, "unit": "ng·h/mL"}, {"measurement": "Cmax", "setting": "[3]; [4]", "value": 19800, "unit": "ng/mL"}, {"measurement": "Tmax", "setting": "[3]; [4]", "value": 30, "unit": "min"}, {"measurement": "AUC(0-inf)", "setting": "[3]; [5]", "value": 6490, "unit": "ng·h/mL"}, {"measurement": "AUC(0-t)", "setting": "[3]; [5]", "value": 6070, "unit": "ng·h/mL"}, {"measurement": "Vd", "setting": "[3]; [5]", "value": 0.0967, "unit": "L/kg"}, {"measurement": "clearance", "setting": "[3]; [5]", "value": 2.57, "unit": "mL/min/kg"}, {"measurement": "bioavailability", "setting": "[3]; mouse, in vivo, ip, 5 mg/kg", "value": 99, "unit": "%"}]}
